What was measured:
[1] = hygroscopicity of the drug substance (statement); assay type: physicochemical; conditions: background statement
[2] = dynamic vapour sorption (DVS): water absorption or loss as a function of relative humidity; assay type: physicochemical; conditions: for change in mass in % (sorption) / change in mass in % (desorption): 25° C., 9.5 mg sample, 4 hours; for change in mass in % (sorption): cycle 0-95%; for change in mass in % (desorption): cycle 40-0
Text: A clear characterisation of this property is achieved by means of isothermal measurements over predetermined time intervals and predetermined relative humidity using dynamic vapour sorption (DVS from the company Surface Measurement Systems LTD, Marlow, Buckinghamshire, UK). […] The following cycles of changes in relative humidity are shown: 40-0; 0-95% relative humidity: The measurement error of this sorption method based on thermogravimetry is about 0.1%.

Row | SMILES | hygroscopicity [1] | water absorption or loss ([2]; above 40% relative humidity) | water uptake compared with the hemifumarate ([2]; below 40% relative humidity) | change in mass in % (sorption) ([2]; relative humidity 0%) [%] | change in mass in % (desorption) ([2]; relative humidity 0%) [%] | change in mass in % (sorption) ([2]; relative humidity 10%) [%] | change in mass in % (desorption) ([2]; relative humidity 10%) [%] | change in mass in % (sorption) ([2]; relative humidity 20%) [%] | change in mass in % (desorption) ([2]; relative humidity 20%) [%] | change in mass in % (sorption) ([2]; relative humidity 30%) [%] | change in mass in % (desorption) ([2]; relative humidity 30%) [%] | change in mass in % (sorption) ([2]; relative humidity 40%) [%] | change in mass in % (desorption) ([2]; relative humidity 40%) [%] | change in mass in % (sorption) ([2]; relative humidity 50%) [%] | change in mass in % (sorption) ([2]; relative humidity 60%) [%] | change in mass in % (sorption) ([2]; relative humidity 70%) [%] | change in mass in % (sorption) ([2]; relative humidity 80%) [%] | change in mass in % (sorption) ([2]; relative humidity 90%) [%] | change in mass in % (sorption) ([2]; relative humidity 95%) [%]
1 | COCCCOc1cc(C[C@@H](C[C@H](N)[C@@H](O)C[C@H](C(=O)NCC(C)(C)C(N)=O)C(C)C)C(C)C)ccc1OC [aliskiren, 2(S),4(S),5(S),7(S)—N-(3-amino-2,2-dimethyl-3-oxopropyl)-2,7-di(1-methylethyl)-4-hydroxy-5-amino-8-[4-methoxy-3-(3-methoxy-propoxy)phenyl]-octanamide] | highly hygroscopic | – | – | – | – | – | – | – | – | – | – | – | – | – | – | – | – | – | –
2 | COCCCOc1cc(C[C@@H](C[C@H](N)[C@@H](O)C[C@H](C(=O)NCC(C)(C)C(N)=O)C(C)C)C(C)C)ccc1OC.O=S(=O)(O)O [hydrogen sulfate salt of aliskiren] | – | significant water absorption or loss | does not take up as much water as the hemifumarate | 0.00 | 0.00 | 0.46 | 0.88 | 0.84 | 1.25 | 1.31 | 1.67 | 1.98 | 2.20 | 3.39 | 7.07 | 8.88 | 13.43 | 25.83 | 40.62

Reference: patent publication US7872153B2, “Salt of aliskiren with sulfuric acid” (Novartis AG, priority 2006, dated 2011)
